One may read the IC50 as the point on the concentration scale where inhibition reaches its midpoint. A low value points to higher potency.

Data set [1] has as its system reconstituted three-dimensional human epidermis model (EPISKIN-Standard Model). The data set can be described thus: Skin irritation assay, reconstituted human epidermis model EPISKIN-SM. Conditions: 15 minutes application, 42 hours post-incubation.
Experimental: (§1) In order to test the toxicity of jasmonate ester derivatives in human skin, skin irritation assay using a reconstituted three-dimensional human epidermis model (EPISKIN-Standard Model™; conducted at BSL-Bioservices, Planegg, Germany) was performed.
(§2) Irritant potential of the compound was assessed from the relative mean tissue viabilities obtained compared to the corresponding negative control tissues concurrently treated with Aqua Dest (distilled water). The release of Interleukin-1α (IL-1α) into the tissue culture medium was determined to confirm the obtained results.
The test system of data set [2] is reconstituted three-dimensional human epidermis model (EpiDerm skin model). The data set can be described thus: Skin corrosion assay, EpiDerm skin model. In kind it is cell-based. How it is done:
In particular, MJ was applied topically to the EpiDerm™ tissue and incubated for 3 and 60 minutes at each time. After the incubation period, tissue viability was assessed via MTT reduction assay.

The test system of data set [3] is actinic keratosis (AK) cell line HT297.T. The data set can be described thus: XTT proliferation assay in actinic keratosis cell line. In kind it is cell-based. To be noted: 72 h, 3 days treatment, HT297.T cells. How it is done:
IC50 values were calculated from the mean of triplicate wells for each experiment. […]
For orientation: Tetrazolium dyes change colour on reduction, which living cells bring about.

The subject of data set [4] is UVB-damaged skin in SKH-1 mice. The data set can be described thus: Skin lesion formation induced by UVB, damaged skin mouse model of actinic keratosis. In kind it is in vivo. The text has this:
The efficacy of Compound C was further evaluated in an animal model of Actinic Keratosis (AK). The purpose of the study was to determine the effect of compound C against lesion formation in UVB-damaged skin in SKH-1 mice, a mouse model of AK and non-melanoma skin cancers.
The study was divided to two parts: pre-study that included UVB irradiation to induce the damage to the skin, and efficacy study that included the treatment with Compound C compared to standard treatment and efficacy evaluation. After 16 weeks of UVB irradiation, 60% of the animals developed lesions, and treatment was started on week 17 and continued for 7.5 weeks. The total duration of the study was 23.5 weeks.
The study included female mice, 6-8 weeks of age at study initiation. After 16 weeks of UVB irradiation, when 60% (36/60) of the animals developed at least 1 lesion, mice were randomly stratified into 12 mice per group (see Table 4) according to score and number of lesions. Picato gel (Ingenol mebutate, Leo Pharma Inc.) was used as the positive control.
For UVB irradiation, Vilber-Lourmat (France) Lamp VL-6.M was used, irradiating at 312 nm with an intensity of 0.89 mW/cm^2 at a distance of 15 cm. Determination of UVB irradiation Minimal Erythemal Dose (MED) was performed prior to the beginning of the study (during the pre-study period). Animals were UVB irradiated during different time periods (starting at 30 sec) and the presence of erythema was recorded 24 and 48 hours later.
Observations for clinical scoring and signs of erythema and edema, were performed twice a week. Erythema and edema scoring were performed according to the grading levels described in Table 5 below. Lesion numbers were determined once a week during Weeks 4-6 and twice a week during Weeks 7-16 until treatment started. During treatment, lesion number and erythema-edema scores were performed twice a week.

Data set [5] deals with metastatic melanoma cells. Conditions: cited from earlier work.
Data set [6] is classed as in vitro ADME. Conditions: human.
Experimental: These studies were conducted by BSL-Bioservices (Planegg, Germany) and the samples were analyzed by ATC (Liege, Belgium).
Data set [7] relates to reconstituted three-dimensional human epidermis model (EPISKIN-Standard Model).
Experimental: as §1, §2
For data set [8], the system named is lymphomas in mice. To be noted: cited from earlier work.
Data set [9] deals with cervical cancer cell lines. To be noted: range of cervical cancer cell lines; cited from earlier work.
Data set [10] relates to malignant keratinocytes A431 cell line. Conditions: cited from earlier work.

SMILES strings stand for the structures.

Consider `CCCCCCCCCCCCOS(=O)(=O)[O-].[Na+]` [5% SDS solution], for which, in [1], the “Mean relative tissue viability (%) (MTT reduction)” value was determined as 3.3 ± 0.6%. Besides, in data set [1] (tissue culture medium), the “IL-1α release” value amounted to 236.7 ± 23.0 pg/mL.

As for `[K+].[OH-]` [8N KOH], in data set [2] (3 minutes treatment), the “Mean relative tissue viability (%) (MTT reduction) after 3 minutes” value turned out to be 26 ± 5.3%. Besides, the “Mean relative tissue viability (%) (MTT reduction) after 60 minutes” value in data set [2] (60 minutes treatment) is 14 ± 3.7%.

Turning to `CC/C=C\CC1C(=O)CCC1CC(=O)Oc1cccc2cccnc12` (stereo not shown) [Compound C], the IC50 in data set [3] worked out at 0.25 µM. In addition, the “maximal reduction in lesion number on Day 50” value worked out at 65% in data set [4] (Compound C 2.5% topical, group 3F); 72% in [4] (Compound C 40% topical, group 5F); 70% in [4] (group 4F (5% topical per Table 4)). In addition, in data set [4] (groups treated with compound C), the “histopathology evaluation of skin” value is given as “look similar to naïve (healthy) animals”. Further, the gross pathology examination result in [4] (mouse, in vivo) is “No abnormality was detected”. Also, the “skin erythema or edema following topical treatment” value in data set [4] (mouse, in vivo) was “no skin erythema or edema”. Moreover, in [4] (topical, concentration not given), the “reduction in total area of lesions and total tumor area” value came out at 70%.

As for `CC/C=C\CC1C(=O)CCC1CC(=O)OC` (stereo not shown) [MJ, methyl jasmonate], in [5], the cell motility result is listed as “suppresses cell motility” and the “development of lung metastases” value is on record as “inhibits the development of lung metastases”. In [6], this molecule showed a local intra-skin concentrations of about 1 M. In data set [3], this molecule had an IC50 of 21.1 µM. Also, the “irritation classification according to ECVAM SIVS recommendations” value in data set [7] was “non-irritant”. For the same molecule, the “prevention of development of lymphomas” value in data set [8] is “effective”. Moreover, in data set [9], the cytotoxicity result is given as “cytotoxic”. In data set [2], the “corrosion classification according to OECD Guideline and EC Commission Regulation” value is recorded as “non-corrosive”. Moreover, the “toxicity on A431 cell line” value in data set [10] is “low toxicity”.

As to `CC/C=C\C[C@H]1C(=O)CC[C@@H]1CC(=O)O` [jasmonic acid], the “toxicity on A431 cell line” value in [10] is given as “low toxicity”.

The record behind these values is US9284252B2, “Use of jasmonate ester derivatives for treating benign hyperproliferative skin disorders” (SEPAL PHARMA LTD., priority 2009, dated 2016).
